Data taken from US5840740A, “Aminosterol compounds and a method of treating infection using the aminosterol compounds” (priority 1995, dated 1998).
Entries after “also recorded” stand apart in the source; their conditions may differ.

Columns and labels:
NHE1β = details: background, nucleated erythrocytes; cited from earlier work
[1] = Hematological profile in L1210-inoculated mice
Source text: C57B mice were inoculated with L1210 lymphoblastic leukemia cells at an inoculum that causes leukemia in 100% of animals.

[2] = tested on: human microvascular cells; test: Inhibition of endothelial cell cord formation in vitro; format: cell-based; details: Homo sapiens, Endothelial cell; Table II; read-out: Cord Formation, Minimum Effective Concentration
Source text: Endothelial cells have the capacity in vitro to form tubular aggregates resembling capillaries in various early stages of formation. This conversion occurs under relatively specific conditions, in which essential growth factors along with an effective substratum are provided. It has been shown that both the interaction of growth factors with the endothelial cell and its attachment to a substratum activate the NHE. The activation of this exchanger is believed to be required for subsequent morphologic transformation of the endothelial cell into a multicellular tubular structure.
To assess the effect of compounds on the cord-like structures formed by human microvascular cells when plated in the presence of VEFG (Vascular Endothelial Growth Factor) and basic fibroblast growth factor on a collagen matrix, a standard cord formation assay was used.

Xenopus tadpole = details: stage 59-60, 10 μg/ml; in words
[3] = tested on: chick embryo vitelline capillaries; test: Chick embryo vitelline capillary regression assay; format: in vivo; set-up: key to vascular reactivity (capillary regression): +: Vascular reactivity; 0: No vascular reactivity; +/-: Equivocal reactivity; details: for vascular reactivity (capillary regression): 60 min; for Chick embryo diss. assay, Minimum Effective Concentration: Table II; for effect on chick embryo vessels / blood: in words
Protocol: Using the chick embryo vitelline capillaries assay, compounds were tested for their ability to induce capillary regression. Each compound was applied in 0.1 ml of 15% Ficol 400 and PBS onto the embryo, and vascular regression was assessed after 60 minutes.
The 3-day chick embryo consists of an embryonic disc from which numerous vessels emerge and return, forming a "figure 8"-shaped structure--the embryo in the center with vascular loops extending outward over both poles. […] Following a lag period of around 15 minutes, the constriction of continuity between capillary and secondary vessels, generally on the "avenous" side, was observed. Continued pulsatile blood flow progressed, resulting in a "swelling" of the blind tube, followed by a pinching off of the remaining connection and formation of an enclosed vascular sac resembling a "blood island." This process progressed until only the largest vessels remained intact.

B16 melanoma = B16 melanoma growth in C57B mice; format: in vivo, mouse; details: compound 319, text subcutaneous, FIG. 6 legend intraperitoneal
Protocol: The growth of B16 melanoma in C57B mice is dependent upon neovascularization.
Using the growth of B16 melanoma cells in C57B mice, a recognized model for the evaluation of inhibitors of angiogenesis on the growth of cancers, the effects of subcutaneous, intraperitoneal and oral administration of squalamine were evaluated.
In this model, there was observed little evidence of metastasis with or without treatment with chemotherapeutic agents.
Based on the idea that tumor growth involves both the clonal expansion of a malignant cell along with the development of a supporting vascular supply, a combination of compound 1436 with squalamine was tested to determine whether it would achieve a synergistic effect on solid tumor growth. This concept was evaluated in the B16 melanoma model.
Animals were implanted with B16 melanoma followed by treatment with compound 1436 or 1256 administered in a combined schedule or separately. […] Thus, a combination of these two compounds achieves a therapeutic benefit in tumors dependent on neovascularization that may prevent metastatic spread.

human melanoma = test: Growth of human melanoma cells over time / cell death; format: cell-based
[4] = Fasting blood glucose in mice; format: in vivo, mouse (male CD-1); details: mouse, in vivo, iv
Protocol: To study the effect of steroid administrator or the NHE responsible for secretion of insulin, several of the aminosterols from shark liver were administered to fasting mice. Male CD-1 mice were assigned to one of four treatment groups. Whole blood glucose was tested using glucometer (Lifescan Glucometer II and One Touch test strips). Statistical analysis was via one-way analysis of variance (ANOVA) followed by subsequent Bonferonni's t-test.

[5] = tested on: Human ovarian carcinoma SKOV3; test: Growth inhibition in vitro; format: cell-based; details: in words
Source text: As set forth in Table 7 below, all malignant tumors evaluated in tissue culture, endothelial cells and vascular smooth muscle cells were sensitive to inhibition. Thus, compound 1436 has application in the control of growth factor dependent proliferation of many types of tissue.

[6] = L1210 mice, cisplatin 8 mg/kg ip or compound 1436 10 mg/kg ip q4d

For `N=C(N)NC(=O)c1nc(Cl)c(N)nc1N` [Amiloride], which “inhibition of NHE1β” value (NHE1β) is on record?
Its value is “inhibited by high concentrations of amiloride”.

What does the source list for `N.N.[Cl][Pt][Cl]` [Cisplatin]?
RBC, Early Time [1, 6]: 9.4 10^6 /mm^3; RBC, Late Time [1, 6]: 1.5 10^6 /mm^3; WBC, Early Time [1, 6]: 8.1 10^3 /mm^3; WBC, Late Time [1, 6]: 18.1 10^3 /mm^3; hematological profile ([1]; in words): profound anemia by day 28

Which results are given for `C[C@H](CCC(=O)O)[C@H]1CC[C@H]2[C@@H]3CC[C@H]4C[C@@H](NCCCNCCCCN)CC[C@]4(C)[C@H]3CC[C@]12C` [Compound 319]?
minimal effective concentration [2]: 13.8 µg/mL; pharmacological response in tadpole (Xenopus tadpole): common vascular occlusive effect; vascular reactivity (capillary regression) ([3]; 0.001 μg applied): +/-; vascular reactivity (capillary regression) ([3]; 0.01 μg applied): +; vascular reactivity (capillary regression) ([3]; 0.1 μg applied): +; vascular reactivity (capillary regression) ([3]; 1 μg applied): +; vascular reactivity (capillary regression) ([3]; 10 μg applied): +; Chick embryo diss. assay, Minimum Effective Concentration [3]: 0.001 µg; effect on chick embryo vessels / blood [3]: especially active; suppression of B16 melanoma tumor growth (B16 melanoma): achieved control of B16 in C57B mice to an extent almost comparable to squalamine; suppression of B16 melanoma tumor growth (B16 melanoma; listed as compound 319): suppression of murine melanoma in mice

For `CC(C)CCC[C@@H](C)[C@H]1CC[C@H]2[C@@H]3CC[C@H]4C[C@@H](NCCCNCCCCNCCCN)CC[C@]4(C)[C@H]3CC[C@]12C` [Compound 353], which “pharmacological response in tadpole” value (Xenopus tadpole) is on record?
The value was “effects like those produced by compound 1436”.

And the “effect on growth of melanoma” value (human melanoma; 48 hours vs first 12 hours)?
The value was “most pronounced over 48 hours, with less of an effect noted within the first 12 hours of incubation”.

And the “mode of cell death / activity against melanoma” value (human melanoma; in words)?
Its value is “potent activity against melanoma and a number of cancer cells; also recorded: apoptotic cell death has been induced”.

What about the “vascular reactivity (capillary regression)” value (“vascular reactivity” for short) ([3]; 1 μg applied) of the same compound?
Its value is “+/-”.

And the “Chick embryo diss. assay, Minimum Effective Concentration” value (from here on “Chick embryo diss. assay”) [3]?
The value was > 1 µg.

And the “effect on chick embryo vessels / blood” value [3]?
The value was “no effect on the chick embryo capillary bed”.

Which “pharmacological response in tadpole” value (Xenopus tadpole) does the source give for `CC(C)CCC[C@@H](C)[C@H]1CC[C@H]2[C@@H]3[C@H](O)C[C@H]4C[C@@H](NCCCNCCCCN)CC[C@]4(C)[C@H]3CC[C@]12C` [Compound 371] here?
Its value is “effects like those produced by compound 1436”.

And the “vascular reactivity” value ([3]; 0.001 μg applied)?
Its value is 0.

And the “vascular reactivity” value ([3]; 0.01 μg applied)?
The value was 0.

And the “vascular reactivity” value ([3]; 0.1 μg applied)?
Its value is 0.

And the “vascular reactivity” value ([3]; 1 μg applied)?
Its value is “+/-”.

What about the “vascular reactivity” value ([3]; 10 μg applied) of the same compound?
Its value is “+”.

And the “Chick embryo diss. assay” value [3]?
The value was 1 to 10 µg.

Which “pharmacological response in tadpole” value (Xenopus tadpole) does the source give for `COC(=O)CC[C@@H](C)[C@H]1CC[C@H]2[C@@H]3CC[C@@H]4C[C@H](NCCN)CC[C@]4(C)[C@H]3C[C@H](O)[C@]12C` [Compound 416] here?
Its value is “functionally similar to compound 1437”.

What about the “Chick embryo diss. assay” value [3] of the same compound?
The value was > 1 µg.

Which results are given for `C[C@H](CCC(=O)O)[C@H]1CC[C@H]2[C@@H]3[C@H](O)C[C@@H]4C[C@H](NCCN)CC[C@]4(C)[C@H]3CC[C@]12C` [Compound 414]?
pharmacological response in tadpole (Xenopus tadpole): pharmacologic activity similar to Fraction 1; vascular reactivity (capillary regression) ([3]; 1 μg applied): 0; Chick embryo diss. assay, Minimum Effective Concentration [3]: > 1 µg

With `CC(C)C(CO)(CC[C@@H](C)[C@H]1CC[C@H]2[C@@H]3[C@H](O)C[C@H]4C[C@@H](NCCCNCCCCN)CC[C@]4(C)[C@H]3CC[C@]12C)OS(=O)(=O)O` (some centres unmarked) [Compound 1437] as the compound, how does the hyperglycemia [4] read?
The hyperglycemia was “caused hyperglycemia in mice”.

And the “Chick embryo diss. assay” value [3]?
Its value is > 1 µg.

What about the anticancer activity [5] of the same compound?
Its anticancer activity is “anticancer activity against the human ovarian carcinoma, SKOV3”.
